Results: patent US11225474B2, “Crystalline salt forms of 3-(1,2,4-triazolo[4,3-a]pyridine-3-ylethynyl)-4-methyl-N-(4-((4-methylpiperazin-1-yl)methyl)-3-trifluoromethylphenyl)benzamide for medical application” (priority 2016, dated 2022)
In brackets after ≈: the same amount, converted by molar mass. Read-outs that look alike come from different tables or passages of the source.

What was measured:
[1] = Hygroscopicity by gravimetric moisture absorption; type: physicochemical; conditions: for water absorbed (hygroscopicity): relative air humidity of 90%
Text: Samples were also studied using the following methods: polarization microscopy (Leica DMRB Polarized Microscope, resolution of 1600×1200)—to confirm crystallinity, ion chromatography—to confirm anion and cation stoichiometric proportion, differential scanning calorimetry (DSC) and thermogravimetric analysis (TGA)—to confirm composition and study of temperature stability of samples; ^1H NMR (500 MHz Bruker AVANCE 500.13 MHz, solvent DMSO-d6)—to confirm structure, assess purity and content of organic solvents; gravimetric moisture absorption—to assess hygroscopicity. DSC was carried out using Mettler 822e DSC apparatus. The measuring system was calibrated according to ISO 11357-1 standard based on standard substances phase changes (C6H12; Hg; benzoic acid; Ga; KNO3; In; Sn; Bi; CsCl; purity grade 99.99%). Temperature calibration regular error (determined based on In) is 0.1°. Samples were tested in standard aluminum cells in the artificial air flow at a temperature range of 30-300° C. with heating speed of 10°/min. TG measurements were taken using Mettler 851e SDTA/TGA TG analyzer. The apparatus was calibrated using standard substances melting points (Ag; Al; Bi; In; Sn; purity grade of 99.99%). Weighing error is NMT 0.1% (determined using CaC2O4·2H2O standard). The test was carried out in a standard open aluminum container in the artificial air flow at a temperature range of 30-150° C. with heating speed of 10°/min. To avoid dehydration, the material was not exposed to mechanical treatment before taking measurements.

[2] = physchem; type: physicochemical; conditions: deionized water
[3] = Stability of polymorph modifications, suspending in acetone for 6 days; type: physicochemical; conditions: for crystalline structure after suspending in acetone: 6 days; for Crystallinity in 6 days: suspending in acetone for 6 days, room temperature
Procedure: Crystallinity of all samples obtained was studied using the method of X-ray powder diffraction (to study the crystallinity structure). Diffraction patterns were obtained at a temperature of 25° C. […] Survey step 0.02° 2θ, angle range 3-45° 2θ. Diffraction patterns obtained were studied in detail using X'Pert HighScore Plus software package.

[4] = for pH: equilibrium solubility test in water; for Crystallinity in 24 h: solid in water, equilibrium solubility test
[5] = Stability, 7 days at T = 60° C.; type: physicochemical; conditions: for Crystallinity in 7 days / Relative peak area, in 7 days: 7 days at T = 60° C.; for Relative peak area, initial: before storage; for content of impurities: kept seven days at 60° C.
[6] = pKa of the base; type: physicochemical
[7] = Dissolution kinetics (USP Apparatus 1 Basket Method); type: physicochemical; conditions: for pH of prepared solution: 780 minutes after beginning
Procedure: During further studies of the polymorphous modifications of the methanesulfonic acid salt of 3-(1,2,4-triazolo[4,3-a]pyridine-3-ylethynyl)-4-methyl-N-(4-((4-methylpiperazine-1-yl)methyl)-3-trifluoromethylphenyl)benzamide, the kinetics of dissolution of the free base and the two methanesulfonic acid salt form polymorphous modifications was studied. Dissolution kinetics studies were performed using USP Apparatus 1 Basket Method (USP40, General Chapter <711>. Dissolution), dissolution media volume—700 mL, temperature—37±1° C. paddle stirrers' rotation rate—100 rpm. The test sample dissolution rate was calculated as an average of six repeats. Distilled water was used as the dissolution medium for the polymorphous modifications of 3-(1,2,4-triazolo[4,3-a]pyridine-3-ylethynyl)-4-methyl-N-(4-((4-methylpiperazine-1-yl)methyl)-3-trifluoromethylphenyl)benzamide methanesulfonic acid salt and, and a solution of 12.2 mL of methanesulfonic acid in 500 mL of water was used as the dissolution medium for the free base. Test portions containing 100 mg of 3-(1,2,4-triazolo[4,3-a]pyridine-3-ylethynyl)-4-methyl-N-(4-((4-methylpiperazine-1-yl)methyl)-3-trifluoromethylphenyl)benzamide or 118 mg of 3-(1,2,4-triazolo[4,3-a]pyridine-3-ylethynyl)-4-methyl-N-(4-((4-methylpiperazine-1-yl)methyl)-3-trifluoromethylphenyl)benzamide methanesulfonic acid salt (100 mg calculated as free base) were used for dissolution. In 780 minutes (13 hours) after the beginning of the test, pH of prepared solutions was measured.

[8] = physchem; conditions: deionized water, thermodynamic from solid, Equilibrium solubility, HPLC analysis
[9] = tested on: Sca1+ marrow cells, expressing p185-T315I^BCR/ABL; test: BCR/ABL-induced chronic myelogenous leukemia model; type: in vivo, C57BL/6N line mice; conditions: oral, 50 mg/kg free base; control 55.0 ± 6.3
Procedure: To assess the efficacy of the free base and methanesulfonic acid salt of 3-(1,2,4-triazolo[4,3-a]pyridine-3-ylethynyl)-4-methyl-N-(4-((4-methylpiperazine-1-yl)methyl)-3-trifluoromethylphenyl)benzamide for treating chronic myelogenous leukemia (CML) studies of the compounds' activity on the BCR/ABL-induced CML-like disease in mice were conducted. In the study C57BL/6N line mice were used. […] The efficacy of therapy with 3-(1,2,4-triazolo[4,3-a]pyridine-3-ylethynyl)-4-methyl-N-(4-((4-methylpiperazine-1-yl)methyl)-3-trifluoromethylphenyl)benzamide administered orally as a free base and methanesulfonic acid salt was studied.

[10] = Acute toxicity, oral route, mice; conditions: male, CD-1, mouse, in vivo, po, LD50, oral, male CD-1 mice; dose of the substance administered
Text: (§1) For each drug dose study a group of six animals was used. The study included control groups with the same animal headcount, which received equivalent solvent doses of a 0.5% water solution of methylcellulose. The follow-up period was 28 days. Lab mouse survivability analysis allowed carrying out Bliss analysis and determining the lethal doses of the studied drugs.

[11] = tested on: CD-1 line mice males; test: Acute toxicity, oral route, mice
Text: as §1

[12] = in vivo; design: species or system C57BL/6 line mice
Procedure: FIGS. 52A-52B. […] The mean values were determined for each time point on the basis of the individual data obtained from three animals.
The results of the study are given in FIG. 52 and in Tables 14 and 15.

[13] = Solubility of the free base in various solvents; type: physicochemical; conditions: thermodynamic from solid
Procedure: At the first stage the initial base was tested for solubility in selected organic solvents. The maximum selected solvent volume used in this test was 1.25 mL per 1 mg of base. Low toxicity (Class 3), low-boiling (Tboiling<100° C.), polar, solvents. in which the base was soluble at no less than 10 mg/mL were selected for further studies.

[14] = oral, male CD-1 mice, dose of the substance administered
[15] = mouse, free base 50 mg/kg, single oral, C57BL/6 mice, plasma
[16] = mesylate polymorphous modification I 59 mg/kg (50 mg/kg as free base), single oral, C57BL/6 mice

Structure (SMILES): Cc1ccc(C(=O)Nc2ccc(CN3CCN(C)CC3)c(C(F)(F)F)c2)cc1C#Cc1nnc2ccccn12.Cl [HAL-G-196-2]
- sample hygroscopicity (water sorption and desorption) ([1]; gravimetric moisture absorption): desorbed and sorbed water, the volume of which corresponded to a dihydrate
- Apparent solubility ([2]; RT): >29 mg/mL

Structure (SMILES): Cc1ccc(C(=O)Nc2ccc(CN3CCN(C)CC3)c(C(F)(F)F)c2)cc1C#Cc1nnc2ccccn12.Cl [HAL-G-196-3]
- crystalline structure after suspending in acetone [3]: remained unchanged
- Crystallinity in 6 days [3]: Form II
- water absorbed (hygroscopicity) [1]: less than 8 mass percent
- pH [4]: 4.0
- Crystallinity in 24 h [4]: Amorphous
- Crystallinity in 7 days [5]: Form II
- Relative peak area, in 7 days [5]: 99.9%
- Relative peak area, initial [5]: 99.9%
- content of impurities [5]: remained constant

Structure (SMILES): Br.Cc1ccc(C(=O)Nc2ccc(CN3CCN(C)CC3)c(C(F)(F)F)c2)cc1C#Cc1nnc2ccccn12 [HAL-G-196-7]
- water absorbed (hygroscopicity) [1]: more than ten mass percent of water and thawed in the air

Structure (SMILES): Cc1ccc(C(=O)Nc2ccc(CN3CCN(C)CC3)c(C(F)(F)F)c2)cc1C#Cc1nnc2ccccn12.Cc1ccc(S(=O)(=O)O)cc1 [HAL-G-196-24]
- crystalline structure after suspending in acetone [3]: remained unchanged
- water absorbed (hygroscopicity) [1]: less than four mass percent of water
- pH [4]: 3.5
- Crystallinity in 24 h [4]: Cryst.
- Crystallinity in 7 days [5]: Cryst.
- Relative peak area, in 7 days [5]: 99.9%
- Relative peak area, initial [5]: 99.8%
- content of impurities [5]: remained constant

Structure (SMILES): Cc1ccc(C(=O)Nc2ccc(CN3CCN(C)CC3)c(C(F)(F)F)c2)cc1C#Cc1nnc2ccccn12.O=C(O)/C=C/C(=O)O [HAL-G-196-29]
- crystalline structure after suspending in acetone [3]: remained unchanged
- Crystallinity in 6 days [3]: Cryst.
- water absorbed (hygroscopicity) [1]: less than four mass percent of water
- pH [4]: 4.2
- Crystallinity in 24 h [4]: Cryst.
- Crystallinity in 7 days [5]: Cryst.
- Relative peak area, in 7 days [5]: 99.9%
- Relative peak area, initial [5]: 99.8%
- content of impurities [5]: remained constant

Structure (SMILES): Cc1ccc(C(=O)Nc2ccc(CN3CCN(C)CC3)c(C(F)(F)F)c2)cc1C#Cc1nnc2ccccn12 [free base, 3-(1,2,4-triazolo[4,3-a]pyridine-3-ylethynyl)-4-methyl-N-(4-((4-methylpiperazin-1-yl)methyl)-3-trifluoromethylphenyl)benzamide]
- pKa [6]: ~6.4
- pH of prepared solution ([7]; medium 12.2 mL methanesulfonic acid in 500 mL water): 4.02
- share dissolved ([7]; solution containing 12.2 mL methanesulfonic acid, 780 minutes (13 hours)): less than 90%
- crystalline structure after suspending in acetone [3]: changes
- Crystallinity in 6 days [3]: Form II
- water absorbed (hygroscopicity) [1]: less than three mass percent of water
- pH [4]: 5.3
- Crystallinity in 24 h [4]: Cryst.
- Crystallinity in 7 days [5]: Form I
- Relative peak area, in 7 days [5]: 99.7%
- Relative peak area, initial [5]: 99.7%
- content of impurities [5]: remains constant
- solubility thermodynamic [8]: 0.00023 mg/mL (≈ 0.432 µM)
- Average life [9]: 93.0 ± 6.1 days
- LD50 at 28 days [10]: 677 ± 55 mg/kg
- Dose without observable effects ([11]; male, CD-1, mouse, in vivo, po, 28 days): 160 mg/kg
- signs of animal intoxication ([11]; mouse, in vivo, po): dyspnea, hypodynamia, tumbled fur, diarrhea, bloating, in some animals—focal alopecia
- LD10 [11, 14]: 504 mg/kg
- LD90 [11, 14]: 850 mg/kg
- AUC0-24/24 ([12]; free base 50 mg/kg, single oral, C57BL/6 mice, plasma): 452 ng/mL
- AUC(0-inf) [12, 15]: 10.9 µg·h/mL
- half-life [12, 15]: 2.4 h
- AUC(0-t) ([12]; mouse, free base 50 mg/kg, single oral, C57BL/6 mice, plasma, read-out: AUC0-24): 10.9 µg·h/mL
- Cmax ([12]; mouse, free base 50 mg/kg, single oral, C57BL/6 mice, plasma, read-out: Cmax): 1.49 µg/mL
- Tmax ([12]; mouse, free base 50 mg/kg, single oral, C57BL/6 mice, plasma, read-out: Tmax): 2 h
- solubility ([13]; organic solvent or mixture, 2-methyltetrahydrofuran, 3.7 mg in 0.6 mL, 50 °C): > 0.8 mg/mL
- solubility ([13]; organic solvent or mixture, Acetone, 3.4 mg in 0.3 mL, 50 °C): > 0.8 mg/mL
- solubility ([13]; organic solvent or mixture, Acetonitrile, 3.5 mg in 4.0 mL, 50 °C): < 0.8 mg/mL
- solubility ([13]; organic solvent or mixture, Cyclohexane, 4.3 mg in 4.0 mL, 50 °C): < 0.8 mg/mL
- solubility ([13]; organic solvent or mixture, Dichloromethane, 3.7 mg in 0.4 mL, 50 °C): > 0.8 mg/mL
- solubility ([13]; organic solvent or mixture, Dimethyl sulfoxide, 3.8 mg in 0.1 mL, RT): > 0.8 mg/mL
- solubility ([13]; organic solvent or mixture, Dimethylformamide, 4.7 mg in 0.1 mL, RT): > 0.8 mg/mL
- solubility ([13]; organic solvent or mixture, Ethanol, 4.7 mg in 0.3 mL, 50 °C): > 0.8 mg/mL
- solubility ([13]; organic solvent or mixture, Ethyl acetate, 3.9 mg in 1.3 mL, 50 °C): > 0.8 mg/mL
- solubility ([13]; organic solvent or mixture, Heptane, 3.3 mg in 4.0 mL, 50 °C): < 0.8 mg/mL
- solubility ([13]; organic solvent or mixture, Isopropanol, 3.6 mg in 0.4 mL, 50 °C): > 0.8 mg/mL
- solubility ([13]; organic solvent or mixture, Isopropyl acetate, 4.0 mg in 4.0 mL, 50 °C): < 0.8 mg/mL
- solubility ([13]; organic solvent or mixture, Methanol, 4.0 mg in 0.1 mL, 50 °C): > 0.8 mg/mL
- solubility ([13]; organic solvent or mixture, Methyl ethyl ketone, 4.8 mg in 0.4 mL, 50 °C): > 0.8 mg/mL
- solubility ([13]; organic solvent or mixture, Methyl isobutyl ketone, 4.1 mg in 0.6 mL, 50 °C): > 0.8 mg/mL
- solubility ([13]; organic solvent or mixture, Methyl tert-butyl ether, 4.7 mg in 4.0 mL, 50 °C): < 0.8 mg/mL
- solubility ([13]; organic solvent or mixture, N-methylpyrrolidone, 3.7 mg in 0.1 mL, RT): > 0.8 mg/mL
- solubility ([13]; organic solvent or mixture, Tetrahydrofuran, 3.6 mg in 0.1 mL, 50 °C): > 0.8 mg/mL
- solubility ([13]; organic solvent or mixture, Toluene, 3.4 mg in 4.0 mL, 50 °C): < 0.8 mg/mL
- solubility ([13]; organic solvent or mixture, n-Butanol, 3.6 mg in 0.2 mL, 50 °C): > 0.8 mg/mL
- solubility ([13]; Water, 4.6 mg in 4.0 mL, 50 °C): < 0.8 mg/mL
- solubility ([2]; water, read-out: Apparent solubility): < 1 mg/mL

Structure (SMILES): CS(=O)(=O)O.Cc1ccc(C(=O)Nc2ccc(CN3CCN(C)CC3)c(C(F)(F)F)c2)cc1C#Cc1nnc2ccccn12 [methanesulfonic acid salt (polymorphous modification I)] [3-(1,2,4-triazolo[4,3-a]pyridine-3-ylethynyl)-4-methyl-N-(4-((4-methylpiperazin-1-yl)methyl)-3-trifluoromethylphenyl)benzamide mono methanesulfonic acid salt, polymorphous modification I]
- pH of prepared solution ([7]; medium distilled water): 5.04
- AUC0-24 [12, 16]: 11,933 ngh/mL
- AUC0-24/24 [12, 16]: 497 ng/mL
- AUC0-∞ [12, 16]: 12,103 ng · h/mL
- Cmax [12, 16]: 1,099 ng/mL
- T1/2 [12, 16]: 3.8 h
- Tmax [12, 16]: 4 h

Structure (SMILES): CS(=O)(=O)O.Cc1ccc(C(=O)Nc2ccc(CN3CCN(C)CC3)c(C(F)(F)F)c2)cc1C#Cc1nnc2ccccn12 [methanesulfonic acid salt (polymorphous modification II)] [3-(1,2,4-triazolo[4,3-a]pyridine-3-ylethynyl)-4-methyl-N-(4-((4-methylpiperazin-1-yl)methyl)-3-trifluoromethylphenyl)benzamide mono methanesulfonic acid salt, polymorphous modification II]
- pH of prepared solution ([7]; medium distilled water): 4.95
- differences in all pharmacokinetic parameters studied versus polymorphous modification I ([12]; mouse, in vivo): No statistically true differences in all pharmacokinetic parameters studied were revealed after administration of the salt form as polymorphous modification II (p < 0.05).
